These results are taken from patent US8822440B2, “Inhibiting cyclin D polypeptides” (Mayo Foundation for Medical Education and Research, priority 2006, dated 2014).

In data set [1] the test system is CD138+ myeloma cells. As to the kind of experiment: Unsorted myeloma patient bone marrow, flow cytometry: CD138+ myeloma cells. It counts as cell-based, human. On the procedure:
Flow cytometry. HMCL were treated as indicated and then washed in cold phosphate-buffered saline (PBS) and resuspended in buffer containing AnnexinV-FITC and propidium iodide (BD Biosciences, San Jose, Calif.) for 15 minutes at room temperature. Cells (10^5) were subsequently diluted and analyzed immediately by flow cytometry (FACScan, BD Biosciences, San Jose, Calif.) using CellQuest software. Patient bone marrow specimens were prepared and analyzed in a similar fashion using AnnexinV-FITC and anti-CD138-PE (BD Biosciences, San Jose, Calif.).
As mouse embryos that lack any D-cyclins eventually die from hematopoietic failure (Kozar et al., Cell, 118, 477-91 (2004)), the bone marrow might be predicted to be one of the most sensitive non-malignant tissue to be affected by drugs targeting cyclin D expression. Unsorted bone marrow samples from myeloma patients were treated with kinetin riboside to assess the relative cytotoxicity of this drug on malignant versus non-malignant marrow cells. Bone marrow samples were first processed to remove non-nucleated red cells and were then treated for 48 hours with kinetin riboside (5 μM).
(Flow cytometry measures light scatter and fluorescence of single cells or particles in a stream.)

For data set [2], the system named is cyclin D1, cyclin D2. As to the kind of experiment: Immunoblot of cyclin D proteins in purified patient CD138+ myeloma cells. It counts as cell-based, human. On the procedure:
Primary CD138^+ myeloma cell purification. Samples from patients diagnosed by International Myeloma Working Group criteria were included in this study. Bone marrow processing, including red cell lysis using ammonium chloride and CD138^+ plasma cell purification, was performed as described elsewhere (Abraham et al., Blood, 105, 794-803 (2005)). Research BM samples were obtained following informed consent at the time of routine procurement of clinical samples.
Immunoblotting. Cytosolic extracts were prepared from HMCL or purified patient CD138^+ myeloma cells following exposure to kinetin riboside. Cells were washed with cold PBS, resuspended in cold RIPA buffer (5×10^6 cells/100 μL) containing fresh protease and phosphatase inhibitors (Santa Cruz Biotechnology, Santa Cruz, Calif.) and incubated on ice for 30 minutes with gentle mixing. The supernatant was repossessed following high speed centrifugation, and protein concentrations were determined by the Bradford assay. Immunoblot assays were performed as described elsewhere (Krajewski et al., Anal. Biochem., 236:221-228 (1996)). Briefly, equal amounts of protein were separated by SDS-PAGE and transferred to a PVDF nitrocellulose membrane using a semi-dry apparatus. […]
(In general: In western blotting, separated proteins are transferred to a membrane and probed.)

The test system of data set [3] is 8226 tumors. As to the kind of experiment: 8226 myeloma xenograft in nude mice. The class given is in vivo. The procedure:
FIG. 14. Kinetin riboside induces tumor growth arrest in My5 and 8226 myeloma tumor xenografts. (A) Matched pairs of nude mice bearing My5 tumors were treated intra-peritoneally (i.p.) with vehicle control (□) or with kinetin riboside (▪) at escalating dose-density from 100 mg/kg once daily to 85mg/kg 5×/daily, administered 5 days per week, commencing after mean tumor volume reached 135mm^3. Mean tumor volumes±SEM are shown from the time of xenografting (n=4/group). […]
(§1) Female nude X-linked immune-deficient (BNX) mice purchased from NCI-Frederick were used for in vivo studies. Animals had access to food and water ad libitum and were handled in accordance with animal care and use guidelines. Eight-week-old mice were inoculated with My5 or 8226 (2×10^7) MM cells subcutaneously (s.c.) in the right flank. Kinetin riboside (pre-dissolved in DMSO at 500 mg/mL and stored at −20° C.) was formulated daily by dropwise dissolution to 3.7 mg/mL in pre-warmed (37° C.) 0.9% saline, 1% β2-hydroxypropylcyclodextrin (Sigma) solution and was administered 1×-5× daily at 85 mg/kg/dose. The first dose daily was given intraperitoneally and remaining doses were given s.c. with increasing dosing intervals (30, 60, 120, 180 minutes). Tumor volumes were measured using vernier calipers and calculated with the formula L×W×H×2/3. P-values were calculated by paired t-test (JMP 6.0, SAS; Cary, N.C.).

Data set [4] in a line: Tolerability of kinetin riboside in xenografted BNX mice. The class given is in vivo. The procedure: as §1
The anti-tumor activity of kinetin riboside in vivo was evaluated against My5 and 8226 human myeloma tumors grown as xenografts in nude mice. Drug or vehicle were initially administered once daily with dosing up to100 mg/kg/day, however, no effect on 8226 or My5 (FIG. 14A) tumor growth was observed. […] Xenograft studies were then repeated with 8226 tumors using kinetin riboside 85 mg/kg 4× daily upfront, started when tumors had reached a mean volume of 135 mm^3 (FIG. 14B). […] No effects on neutrophil counts (at 14 days treatment) or on body weight were observed.

Data set [5] relates to human myeloma cell lines (HMCL). The data set can be described thus: HMCL viability / cytotoxicity (MTT, MTS). The class given is cell-based. Particulars: for IC50: Homo sapiens. The procedure:
Subsequent validation studies using selected compounds in human myeloma cell lines (HMCL) confirmed successful suppression of both cyclin D2 and D1 polypeptides. Each of these compounds was then shown to be cytotoxic to a genetically diverse and standardized panel of 14 HMCL in MTT assays: monensin (10-760 nM), camptothecin (5-700 nM), dihydrogambogic acid (250-800 nM), pristimerin (150-500 nM), and kinetin riboside (2.5-20 μM). Cell cycle analysis confirmed induction of G0/G1 phase arrest for most compounds, consistent with cyclin D inhibition.
Viability assay. The effects of screened compounds on cell viability was assessed by 3-(4,5-dimethyl[…])-5-(3-carboxymethoxyphenyl)-2-(4-sulfophenyl)-2-H-tetrazolium (MTS) assay according to the manufacture's instructions (Progmega, Madison, Wis.). MTS reagent (20 μL/well in 96 well plates) was added to cells, and these were then incubated at 37° C. for 4 hours. Absorbance at 490 nm was determined using a 96-well plate reader.

Values joined by “and” are separate entries in the source; they are usually repeats but may differ in a detail not shown here. Identical values can stand only once.

In the case of `OC[C@H]1O[C@@H](n2cnc3c(NCc4ccco4)ncnc32)[C@H](O)[C@@H]1O` [kinetin riboside, N6-Furfuryladenosine], the “kill of patient CD138+ myeloma cells” value in data set [1] (5 μM, 48 hours) amounted to 92%. For the same molecule, in data set [1] (patient bone marrow, 48 hours), the “effect on primary CD138+ myeloma cells” value is listed as “most CD138+ cells become apoptotic”. Further, in data set [1] (unsorted myeloma patient bone marrow samples), the “activity against CD138+ myeloma cells compared with non malignant hematopoietic cells” value is “selective activity”. Besides, the “patient samples with suppression of cyclin D1 or D2” value in data set [2] (10 μM, 16 hours) is listed as 4 of 5. In addition, the “cyclin D1 and D2 levels in sample E (plasma cell leukemia)” value in data set [2] (patient E) is listed as “unaffected”. Besides, the “effect on 8226 tumors compared to vehicle-treated mice” value in data set [3] (85 mg/kg 4× daily upfront, p<0.01) is listed as “Statistically significant tumor growth inhibition”. Moreover, the “effect on 8226 tumor growth” value in data set [3] (once daily, up to 100 mg/kg/day) is listed as “no effect”. Besides, in data set [4] (at 14 days treatment), the “effect on neutrophil counts” value is on record as “No effects”. For the same molecule, in data set [4] (mouse, in vivo), the “effect on body weight” value was “No effects”. Besides, the “tolerability of rapidly repeated doses” value in data set [4] (up to five per day at 85 mg/kg/dose) is “well tolerated”. Further, the IC50 in data set [5] (48 h, 8 out of 12 HMCL) was < 1.7 µg/mL and < 5 µM; in data set [5] (48 h, 11/12 HMCL), < 5 µg/mL and < 15 µM; in data set [5] (JJN-3, JJN3) it was roughly 5 µM; in data set [5] (U-266, U266), greater than 20 µM. In data set [5] (human), the “cytotoxic concentration across panel of 14 HMCL” value fell in the range of 2.5 to 20 µM.

By IC50 is commonly meant the concentration that gives 50% inhibition. A higher IC50 goes with a need for much substance.
